What follows are compounds tested on recombinant NL4-3 virus (Renilla luciferase in nef, Gag P373S; NLRluc) in MT-2 cells (assay: whole plant or invertebrate). Details: Renilla, NL43, luciferase activity in cells infected for 4-5 days with NLRluc recombinants, serial dilutions of inhibitor; class symbols (key in Table 1); read-out: EC50.
Type: cell-based, HIV
Protocol: MT-2 cells and 293T cells were obtained from the NIH AIDS Research and Reference Reagent Program. MT-2 cells were propagated in RPMI 1640 media supplemented with 10% heat inactivated fetal bovine serum, […]. The 293T cells were propagated in DMEM media supplemented with 10% heat inactivated fetal bovine serum (FBS), 100 units/ml penicillin G and 100 μg/ml streptomycin. The proviral DNA clone of NL4-3 was obtained from the NIH AIDS Research and Reference Reagent Program. A recombinant NL4-3 virus, in which a section of the nef gene from NL4-3 was replaced with the Renilla luciferase gene, was used as a reference virus. In addition, residue Gag P373 was converted to P373S. Briefly, the recombinant virus was prepared by transfection of the altered proviral clone of NL4-3. Transfections were performed in 293T cells using LipofectAMINE PLUS from Invitrogen (Carlsbad, Calif.), according to manufacturer's instruction. The virus was titered in MT-2 cells using luciferase enzyme activity as a marker. Luciferase was quantitated using the Dual Luciferase kit from Promega (Madison, Wis.), with modifications to the manufacturer's protocol. The diluted Passive Lysis solution was pre-mixed with the re-suspended Luciferase Assay Reagent and the re-suspended Stop & Glo Substrate (2:1:1 ratio). Fifty (50) μL of the mixture was added to each aspirated well on assay plates and luciferase activity was measured immediately on a Wallac TriLux (Perkin-Elmer). Antiviral activities of inhibitors toward the recombinant virus were quantified by measuring luciferase activity in cells infected for 4-5 days with NLRluc recombinants in the presence serial dilutions of the inhibitor. Table 1 is the key for the data in Table 2.
`C=C(C)[C@@H]1CC[C@]2(NC(=O)NCCCN(C)C)CC[C@]3(C)[C@H](CC[C@@H]4[C@@]5(C)CC=C(c6ccc(C(=O)O)cc6)C(C)(C)[C@@H]5CC[C@]43C)[C@@H]12` [Example 10, 4-((1R,3aS,5aR,5bR,7aR,11aS,11bR,13aR,13bR)-3a-(3-(3-(dimethylamino)propyl)ureido)-5a,5b,8,8,11a-pentamethyl-1-(prop-1-en-2-yl)-2,3,3a,4,5,5a,5b,6,7,7a,8,11,11a,11b,12,13,13a,13b-octadecahydro-1H-cyclopenta[a]chrysen-9-yl)benzoic acid] showed an EC50 of under 100 nM.
Work on `C=C(C)[C@@H]1CC[C@]2(NC(=O)NCCCN3CCOCC3)CC[C@]3(C)[C@H](CC[C@@H]4[C@@]5(C)CC=C(c6ccc(C(=O)O)cc6)C(C)(C)[C@@H]5CC[C@]43C)[C@@H]12` [Example 11, 4-((1R,3aS,5aR,5bR,7aR,11aS,11bR,13aR,13bR)-5a,5b,8,8,11a-pentamethyl-3a-(3-(3-morpholinopropyl)ureido)-1-(prop-1-en-2-yl)-2,3,3a,4,5,5a,5b,6,7,7a,8,11,11a,11b,12,13,13a,13b-octadecahydro-1H-cyclopenta[a]chrysen-9-yl)benzoic acid] yielded an EC50 of under 100 nM.
`C=C(C)[C@@H]1CC[C@]2(NC(=O)NCCCn3ccnc3C)CC[C@]3(C)[C@H](CC[C@@H]4[C@@]5(C)CC=C(c6ccc(C(=O)O)cc6)C(C)(C)[C@@H]5CC[C@]43C)[C@@H]12` [Example 12, 4-((1R,3aS,5aR,5bR,7aR,11aS,11bR,13aR,13bR)-5a,5b,8,8,11a-pentamethyl-3a-(3-(3-(2-methyl-1H-imidazol-1-yl)propyl)ureido)-1-(prop-1-en-2-yl)-2,3,3a,4,5,5a,5b,6,7,7a,8,11,11a,11b,12,13,13a,13b-octadecahydro-1H-cyclopenta[a]chrysen-9-yl)benzoic acid] gave an EC50 of under 100 nM.
Compound `C=C(C)[C@@H]1CC[C@]2(NC(=O)NCCc3c[nH]cn3)CC[C@]3(C)[C@H](CC[C@@H]4[C@@]5(C)CC=C(c6ccc(C(=O)O)cc6)C(C)(C)[C@@H]5CC[C@]43C)[C@@H]12` [Example 13, 4-((1R,3aS,5aR,5bR,7aR,11aS,11bR,13aR,13bR)-3a-(3-(2-(1H-imidazol-4-yl)ethyl)ureido)-5a,5b,8,8,11a-pentamethyl-1-(prop-1-en-2-yl)-2,3,3a,4,5,5a,5b,6,7,7a,8,11,11a,11b,12,13,13a,13b-octadecahydro-1H-cyclopenta[a]chrysen-9-yl)benzoic acid] has an EC50 of under 100 nM.
Work on `C=C(C)[C@@H]1CC[C@]2(NC(=O)NCCCn3ccnc3)CC[C@]3(C)[C@H](CC[C@@H]4[C@@]5(C)CC=C(c6ccc(C(=O)O)cc6)C(C)(C)[C@@H]5CC[C@]43C)[C@@H]12` [Example 14, 4-((1R,3aS,5aR,5bR,7aR,11aS,11bR,13aR,13bR)-3a-(3-(3-(1H-imidazol-1-yl)propyl)ureido)-5a,5b,8,8,11a-pentamethyl-1-(prop-1-en-2-yl)-2,3,3a,4,5,5a,5b,6,7,7a,8,11,11a,11b,12,13,13a,13b-octadecahydro-1H-cyclopenta[a]chrysen-9-yl)benzoic acid] yielded an EC50 of under 100 nM.
In the case of `C=C(C)[C@@H]1CC[C@]2(NC(=O)N3CCCCC3)CC[C@]3(C)[C@H](CC[C@@H]4[C@@]5(C)CC=C(c6ccc(C(=O)O)cc6)C(C)(C)[C@@H]5CC[C@]43C)[C@@H]12` [Example 15, 4-((1R,3aS,5aR,5bR,7aR,11aS,11bR,13aR,13bR)-5a,5b,8,8,11a-pentamethyl-3a-(piperidine-1-carboxamido)-1-(prop-1-en-2-yl)-2,3,3a,4,5,5a,5b,6,7,7a,8,11,11a,11b,12,13,13a,13b-octadecahydro-1H-cyclopenta[a]chrysen-9-yl)benzoic acid], the EC50 is reported as under 100 nM.
With `C=C(C)[C@@H]1CC[C@]2(NC(=O)NCC(=O)O)CC[C@]3(C)[C@H](CC[C@@H]4[C@@]5(C)CC=C(c6ccc(C(=O)O)cc6)C(C)(C)[C@@H]5CC[C@]43C)[C@@H]12` [Example 16, 4-((1R,3aS,5aR,5bR,7aR,11aS,11bR,13aR,13bR)-3a-(3-(carboxymethyl)ureido)-5a,5b,8,8,11a-pentamethyl-1-(prop-1-en-2-yl)-2,3,3a,4,5,5a,5b,6,7,7a,8,11,11a,11b,12,13,13a,13b-octadecahydro-1H-cyclopenta[a]chrysen-9-yl)benzoic acid] the EC50 was under 100 nM.
With `C=C(C)[C@@H]1CC[C@]2(NC(=O)N[C@@H](C)C(=O)O)CC[C@]3(C)[C@H](CC[C@@H]4[C@@]5(C)CC=C(c6ccc(C(=O)O)cc6)C(C)(C)[C@@H]5CC[C@]43C)[C@@H]12` [Example 17, 4-((1R,3aS,5aR,5bR,7aR,11aS,11bR,13aR,13bR)-3a-(3-((S)-1-carboxyethyl)ureido)-5a,5b,8,8,11a-pentamethyl-1-(prop-1-en-2-yl)-2,3,3a,4,5,5a,5b,6,7,7a,8,11,11a,11b,12,13,13a,13b-octadecahydro-1H-cyclopenta[a]chrysen-9-yl)benzoic acid] the EC50 was under 100 nM.
With `C=C(C)[C@@H]1CC[C@]2(NC(=O)N[C@H](C)C(=O)O)CC[C@]3(C)[C@H](CC[C@@H]4[C@@]5(C)CC=C(c6ccc(C(=O)O)cc6)C(C)(C)[C@@H]5CC[C@]43C)[C@@H]12` [Example 19, 4-((1R,3aS,5aR,5bR,7aR,11aS,11bR,13aR,13bR)-3a-(3-((R)-1-carboxyethyl)ureido)-5a,5b,8,8,11a-pentamethyl-1-(prop-1-en-2-yl)-2,3,3a,4,5,5a,5b,6,7,7a,8,11,11a,11b,12,13,13a,13b-octadecahydro-1H-cyclopenta[a]chrysen-9-yl)benzoic acid] the EC50 was under 100 nM.

Same assay, conditions: Renilla, NL43, luciferase activity in cells infected for 4-5 days with NLRluc recombinants, serial dilutions of inhibitor; numeric values; read-out: EC50
`C=C(C)[C@@H]1CC[C@]2(NC(=O)N3CCN([C@@H]4COC[C@H]4N(C)C)CC3)CC[C@]3(C)[C@H](CC[C@@H]4[C@@]5(C)CC=C(c6ccc(C(=O)O)cc6)C(C)(C)[C@@H]5CC[C@]43C)[C@@H]12` [Example 9, 4-((1R,3aS,5aR,5bR,7aR,11aS,11bR,13aR,13bR)-3a-(4-((3S,4S)-4-(dimethylamino)tetrahydrofuran-3-yl)piperazine-1-carboxamido)-5a,5b,8,8,11a-pentamethyl-1-(prop-1-en-2-yl)-2,3,3a,4,5,5a,5b,6,7,7a,8,11,11a,11b,12,13,13a,13b-octadecahydro-1H-cyclopenta[a]chrysen-9-yl)benzoic acid] was tested, and the EC50 was 3 nM.
With `C=C(C)[C@@H]1CC[C@]2(NC(=O)N[C@@H](CO)C(=O)O)CC[C@]3(C)[C@H](CC[C@@H]4[C@@]5(C)CC=C(c6ccc(C(=O)O)cc6)C(C)(C)[C@@H]5CC[C@]43C)[C@@H]12` [Example 18, 4-((1R,3aS,5aR,5bR,7aR,11aS,11bR,13aR,13bR)-3a-(3-((S)-1-carboxy-2-hydroxyethyl)ureido)-5a,5b,8,8,11a-pentamethyl-1-(prop-1-en-2-yl)-2,3,3a,4,5,5a,5b,6,7,7a,8,11,11a,11b,12,13,13a,13b-octadecahydro-1H-cyclopenta[a]chrysen-9-yl)benzoic acid] the EC50 was 250 nM.

— patent US20140343000A1 (priority 2011, published 2014)
